Assay results reported in the supplement of paper PMC8612539.
Values after ≈ are worked out from the molar mass of the structure shown.

System: Escherichia coli
Assay: minimum inhibitory concentration (MIC)
Description: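 Broth microdilution MIC (Sensititre BOPO7F bovine plate, CLSI methods) of 19 antimicrobials against field isolates of P. multocida, M. haemolytica, H. somni (deep nasopharyngeal swabs) and E. coli, Enterococcus spp. (rectal swabs) from weaned dairy heifers. Incubation 16-24 h at 35 C. MIC is the lowest concentration preventing visible growth. Values with <= or > lie at the tested range limits. Trimethoprim-sulfamethoxazole is given as the trimethoprim component of a 1:19 mixture.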

CO/N=C(\C(=O)N[C@@H]1C(=O)N2C(C(=O)O)=C(CSC(=O)c3ccco3)CS[C@H]12)c1csc(N)n1 [Ceftiofur]
Details | minimum inhibitory concentration [µg/mL]
isolate (source animal id): 8 | 0.5 (≈ 0.955 µM)
isolate (source animal id): 9 | 1 (≈ 1.91 µM)
isolate (source animal id): 10 | ≤ 0.25
isolate (source animal id): 11 | ≤ 0.25
isolate (source animal id): 12 | 0.5 (≈ 0.955 µM)
isolate (source animal id): 13 | > 8
isolate (source animal id): 14 | > 8
isolate (source animal id): 15 | ≤ 0.25
isolate (source animal id): 16 | 0.5 (≈ 0.955 µM)
isolate (source animal id): 98 | 0.5 (≈ 0.955 µM)
isolate (source animal id): 99 | 0.5 (≈ 0.955 µM)
isolate (source animal id): 100 | ≤ 0.25
isolate (source animal id): 101 | ≤ 0.25
isolate (source animal id): 102 | 0.5 (≈ 0.955 µM)
isolate (source animal id): 103 | 0.5 (≈ 0.955 µM)
isolate (source animal id): 104 | ≤ 0.25
isolate (source animal id): 105 | 0.5 (≈ 0.955 µM)
isolate (source animal id): 106 | 0.5 (≈ 0.955 µM)
isolate (source animal id): 107 | ≤ 0.25
isolate (source animal id): 108 | ≤ 0.25
isolate (source animal id): 109 | ≤ 0.25
isolate (source animal id): 110 | 0.5 (≈ 0.955 µM)
isolate (source animal id): 111 | ≤ 0.25
isolate (source animal id): 112 | ≤ 0.25
isolate (source animal id): 113 | 0.5 (≈ 0.955 µM)
isolate (source animal id): 114 | 0.5 (≈ 0.955 µM)
isolate (source animal id): 115 | 4 (≈ 7.64 µM)
isolate (source animal id): 116 | 0.5 (≈ 0.955 µM)
isolate (source animal id): 117 | ≤ 0.25
isolate (source animal id): 118 | 0.5 (≈ 0.955 µM)
isolate (source animal id): 119 | 1 (≈ 1.91 µM)
isolate (source animal id): 120 | 0.5 (≈ 0.955 µM)
isolate (source animal id): 121 | 0.5 (≈ 0.955 µM)
isolate (source animal id): 122 | 0.5 (≈ 0.955 µM)
isolate (source animal id): 123 | ≤ 0.25
isolate (source animal id): 124 | 0.5 (≈ 0.955 µM)
isolate (source animal id): 125 | 0.5 (≈ 0.955 µM)
isolate (source animal id): 126 | 0.5 (≈ 0.955 µM)
isolate (source animal id): 127 | 0.5 (≈ 0.955 µM)
isolate (source animal id): 128 | 8 (≈ 15.3 µM)
isolate (source animal id): 129 | 0.5 (≈ 0.955 µM)
isolate (source animal id): 130 | 0.5 (≈ 0.955 µM)
isolate (source animal id): 131 | 0.5 (≈ 0.955 µM)
isolate (source animal id): 132 | > 8
isolate (source animal id): 133 | 0.5 (≈ 0.955 µM)
isolate (source animal id): 134 | 0.5 (≈ 0.955 µM)
isolate (source animal id): 135 | 0.5 (≈ 0.955 µM)
isolate (source animal id): 136 | 0.5 (≈ 0.955 µM)
isolate (source animal id): 137 | 0.5 (≈ 0.955 µM)
isolate (source animal id): 138 | ≤ 0.25
isolate (source animal id): 139 | ≤ 0.25
isolate (source animal id): 140 | 0.5 (≈ 0.955 µM)
isolate (source animal id): 141 | 0.5 (≈ 0.955 µM)
isolate (source animal id): 142 | 0.5 (≈ 0.955 µM)
isolate (source animal id): 143 | 2 (≈ 3.82 µM)
isolate (source animal id): 144 | 8 (≈ 15.3 µM)
isolate (source animal id): 145 | 0.5 (≈ 0.955 µM)
isolate (source animal id): 146 | ≤ 0.25
isolate (source animal id): 147 | 8 (≈ 15.3 µM)
isolate (source animal id): 148 | ≤ 0.25
isolate (source animal id): 149 | ≤ 0.25
isolate (source animal id): 150 | 0.5 (≈ 0.955 µM)
isolate (source animal id): 151 | ≤ 0.25
isolate (source animal id): 152 | ≤ 0.25
isolate (source animal id): 153 | ≤ 0.25
isolate (source animal id): 154 | 0.5 (≈ 0.955 µM)
isolate (source animal id): 155 | ≤ 0.25
isolate (source animal id): 156 | 8 (≈ 15.3 µM)
isolate (source animal id): 157 | 0.5 (≈ 0.955 µM)
isolate (source animal id): 158 | 0.5 (≈ 0.955 µM)
isolate (source animal id): 159 | ≤ 0.25
isolate (source animal id): 160 | ≤ 0.25
isolate (source animal id): 161 | ≤ 0.25
isolate (source animal id): 162 | 8 (≈ 15.3 µM)
isolate (source animal id): 163 | 0.5 (≈ 0.955 µM)
isolate (source animal id): 164 | ≤ 0.25
isolate (source animal id): 165 | ≤ 0.25
isolate (source animal id): 166 | ≤ 0.25
isolate (source animal id): 167 | 0.5 (≈ 0.955 µM)
isolate (source animal id): 168 | ≤ 0.25
isolate (source animal id): 169 | 0.5 (≈ 0.955 µM)
isolate (source animal id): 170 | 0.5 (≈ 0.955 µM)
isolate (source animal id): 171 | 0.5 (≈ 0.955 µM)
isolate (source animal id): 172 | ≤ 0.25
isolate (source animal id): 173 | 0.5 (≈ 0.955 µM)
isolate (source animal id): 174 | 0.5 (≈ 0.955 µM)
isolate (source animal id): 175 | 0.5 (≈ 0.955 µM)
isolate (source animal id): 176 | 0.5 (≈ 0.955 µM)
isolate (source animal id): 177 | 8 (≈ 15.3 µM)
isolate (source animal id): 178 | 0.5 (≈ 0.955 µM)
isolate (source animal id): 179 | ≤ 0.25
isolate (source animal id): 180 | 0.5 (≈ 0.955 µM)
isolate (source animal id): 181 | ≤ 0.25
isolate (source animal id): 182 | 0.5 (≈ 0.955 µM)
isolate (source animal id): 183 | 0.5 (≈ 0.955 µM)
isolate (source animal id): 184 | 0.5 (≈ 0.955 µM)
isolate (source animal id): 185 | 0.5 (≈ 0.955 µM)
isolate (source animal id): 186 | 0.5 (≈ 0.955 µM)
isolate (source animal id): 187 | ≤ 0.25
isolate (source animal id): 188 | > 8
